Read-outs that look alike come from different tables or passages of the source.
Tests used:
[1] = molecular target: T1, PTPN2 (Homo sapiens, UniProt P17706); test: PTPN2 biochemical assay (PhosphoSens, substrate AQT0264); conditions: PhosphoSens substrate AQT0264 20 μM, room temperature; read-out: PTPN2 BCHEM IC50
T1 sequence (P17706 1-415): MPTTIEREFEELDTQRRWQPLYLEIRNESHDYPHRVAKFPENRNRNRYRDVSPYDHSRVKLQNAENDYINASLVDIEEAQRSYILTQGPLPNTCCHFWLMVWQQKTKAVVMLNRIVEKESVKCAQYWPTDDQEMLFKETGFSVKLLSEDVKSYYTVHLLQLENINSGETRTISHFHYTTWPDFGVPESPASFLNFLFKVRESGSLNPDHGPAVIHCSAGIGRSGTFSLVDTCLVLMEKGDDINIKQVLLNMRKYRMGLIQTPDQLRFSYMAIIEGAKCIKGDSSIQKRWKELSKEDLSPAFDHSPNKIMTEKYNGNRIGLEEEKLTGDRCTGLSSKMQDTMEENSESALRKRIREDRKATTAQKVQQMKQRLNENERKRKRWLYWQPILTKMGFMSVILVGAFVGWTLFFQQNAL
Experimental: A PhosphoSens® kinase assay was performed as described by the vendor (AssayQuant Technologies, Marlborough, MA). Briefly, 1000× solutions of compounds were prepared in DMSO via serial dilution of the 10 mM DMSO stocks using 3-fold intervals in a 384-well reagent plate. 50 nL of the compound dilution series was then added to the corresponding wells of a 384-well assay plate. 40 mL of 1.25× substrate (AQT0264) in 1× assay buffer (50 mM HEPES pH 7.5, 500 μM EGTA, […] MgCl2, 0.01% Brij-35, 1% Glycerol, 1 mM DTT, and 0.2 mg/mL BSA) was transferred to each well of the assay plate to achieve a final substrate concentration of 20 μM. Finally, […] of 5×PTPN2 enzyme stock was added to each well of the assay plate for a final enzyme concentration of […]. Reaction progress curves were collected by sampling fluorescence intensity at the excitation wavelength 360 nm (λex360) and emission wavelength 480 nm (λem480) every 71 seconds for one hour using a Synergy H4 plate reader (BioTek Instruments/Agilent Technologies, Winooski, VT) at room temperature.
(§1) For IC50 data, High DDT concentration and/or DiFMUP substrate assays were used; a skilled artisan may use either assay.

[2] = molecular target: T1, PTPN2; test: Phosphatase activity assay using DiFMUP as substrate; assay type: biochemical; design: purchased MilliporeSigma SRP5075; conditions: 10 mM DTT, PTPN2 0.15 nM, room temperature, read-out: PTPN2 BCHEM DIFMUP IC50
Experimental: The PTPN2 biochemical assay was performed as follows, a 5× stock solution of human PTPN2 (SRP5075, MilliporeSigma, Burlington, MA) and a 1.25× stock solution of DiFMUP (D6567, ThermoFisher Scientific, Waltham, MA), were prepared in 1× reaction buffer consisting of 50 mM HEPES, pH 7.4, 1 mM EDTA, 150 mM NaCl, 0.2 mg/mL BSA, 100 U/mL catalase and 10 mM DTT. […] of the DiFMUP substrate solution, for a final concentration of […] DiFMUP substrate, was added to a Corning 3574 384-well, white, non-binding surface microtiter plate containing […] of serially diluted test compounds prepared in DMSO. The reactions were started with the addition of […] of the enzyme solution, for a final PTPN2 concentration of 0.15 nM, and monitored every 105 seconds for 60 minutes at λEX 360/λEM 460 in a BioTek Synergy HTX plate reader (Agilent Technologies, Santa Clara, CA) at room temperature. The initial linear portions of the progress curves were fit according to a linear equation to yield the slopes and converted to % inhibition based on a value of 100% activity for the no inhibitor treated control. IC50 values of each compound were obtained by fitting the % inhibition-compound concentration curves using Dotmatics software (Dotmatics, Bishops Stortford, Hertfordshire, England)
as §1

[3] = test system: B16-F10 cells; test: Cell proliferation assay (CellTiter-Glo) in B16-F10 cells with IFN-gamma; assay type: cell-based; conditions: mouse IFN-gamma 10 ng/mL, read-out: PTPN2 Prolif 5d B16F10 EC50
Experimental: B16-F10 cells (ATCC, Manassas, VA, #CRL-6475) were cultured in DMEM growth medium (ThermoFisher Scientific, Waltham, MA, #11995-040) supplemented with 10% heat inactivated FBS (ThermoFisher Scientific, #16140-071) and 1% pen/strep (ThermoFisher Scientific, #15140-122). The cells were seeded into two white opaque 384-well tissue culture treated microplates (PerkinElmer, Waltham, MA, #6007688) at a density of 100 cells/well in 20 uL total volume and incubated overnight at 37 C and 5% CO2. 30 nL of compounds dissolved in DMSO were then transferred from a source plate into target wells with the Echo650 acoustic liquid handler (Beckman Coulter, Indianapolis, IN). Negative control wells received 30 nL of DMSO only (0.15% final concentration). Plates were returned to the incubator for 1 hour and then cells treated with either 5 uL of growth medium or 5 uL of growth medium containing 50 ng/ml of recombinant mouse IFN-gamma protein (R&D Systems, Minneapolis, MN, #485-MI/CF, 10 ng/mL final concentration) using the Assist automated pipetting platform (INTEGRA Biosciences, Hudson, NH). Plates were incubated at 37 C for 4 days and cell proliferation assayed with the CellTiter-Glo reagent (Promega, Madison, WI, #G7573, 25 uL per well). […] Off-target compound mediated cytotoxicity was identified by checking for growth inhibition in the absence of IFNg.

[4] = test system: phospho-STAT1 (Tyr701); test: Phospho-STAT1 (Tyr701) HTRF assay in B16-F10 cells; assay type: cell-based; conditions: mouse IFN-gamma 100 ng/ml, 1 hour, read-out: pSTAT1 HTRF B16 EC50
Experimental: B16-F10 cells (ATCC, Manassas, VA, #CRL-6475) were cultured in DMEM growth medium (ThermoFisher Scientific, Waltham, MA, #11995-040) supplemented with 10% heat inactivated FBS (ThermoFisher Scientific, #16140-071) and 1% pen/strep (ThermoFisher Scientific, #15140-122). The cells were seeded into a white opaque 384-well tissue culture treated microplate (PerkinElmer, Waltham, MA, #6007688) at a density of 10,000 cells/well in 20 uL total volume and incubated overnight at 37 C and 5% CO2. 30 nL of compounds dissolved in DMSO were then transferred from a source plate into target wells with the Echo650 acoustic liquid handler (Beckman Coulter, Indianapolis, IN). Negative control wells received 30 nL of DMSO only (0.15% final concentration). Plates were returned to the incubator for 1 hour and then cells treated with either 5 uL of growth medium or 5 uL of growth medium containing 500 ng/ml of recombinant mouse IFN-gamma protein (R&D Systems, Minneapolis, MN, #485-MI/CF, 100 ng/ml final concentration) using the Assist automated pipetting platform (INTEGRA Biosciences, Hudson, NH). Plates were incubated at 37 C for 1 hour and assayed for phosphorylated STAT1 protein levels with the phospho-STAT1 (Tyr701) HTRF kit (Cisbio, Bedford, MA, #63ADK026PEH) according to manufacturer's instructions. HTRF signal intensity was collected with the En Vision 2105 plate reader (PerkinElmer) 24 hours later and analyzed with the Dotmatics software platform to calculate compound IC50 values.

Row | IC50 [1] [nM] | IC50 [2] [nM] | EC50 ([3]; 120 h) [nM] | EC50 [4] [nM] | Compound | EC50 [3] [nM]
1 | 70 | 11100 | > 15000 | > 15000 | COc1ncc(C)nc1NCc1cc(O)c(N2CC(=O)NS2(=O)=O)c(F)c1 [EXAMPLE 20, 5-[2-fluoro-6-hydroxy-4-[[(3-methoxy-6-methyl-pyrazin-2-yl)amino]methyl]phenyl]-1,1-dioxo-1,2,5-thiadiazolidin-3-one] | 
2 | 70 | 400 | 4240 | 2560 | O=C1CN(c2c(O)cc(CNc3ccc(-c4ccccc4)nc3)cc2F)S(=O)(=O)N1 [EXAMPLE 6, 5-[2-fluoro-6-hydroxy-4-[[(6-phenyl-3-pyridyl)amino]methyl]phenyl]-1,1-dioxo-1,2,5-thiadiazolidin-3-one] | 
3 | 10 | 50 | 1240 | 370 | Cc1ncc(NCc2cc(O)c(N3CC(=O)NS3(=O)=O)c(F)c2)nc1C [EXAMPLE 19, 5-[4-[[(5,6-dimethylpyrazin-2-yl)amino]methyl]-2-fluoro-6-hydroxy-phenyl]-1,1-dioxo-1,2,5-thiadiazolidin-3-one] | 

Row | Compound | IC50 [1] [nM] | IC50 [2] [nM] | EC50 ([3]; 120 h) [nM] | EC50 [4] [nM] | EC50 [3] [nM]
4 | 6-[[3-fluoro-5-hydroxy-4-(1,1,4-trioxo-1,2,5-thiadiazolidin-2-yl)phenyl]methylamino]-4-methyl-pyridine-3-carbonitrile [EXAMPLE 5] | 20 | 20 |  | 4470 | 4760

— patent publication US20240228476A1, “INHIBITORS OF PROTEIN TYROSINE PHOSPHATASE, COMPOSITIONS, AND METHODS OF USE” (BRISTOL-MYERS SQUIBB COMPANY, priority 2022, published 2024)
